What all share (test): NCI tumour cell line growth inhibition, 48 h
In experiment [1] the test system is SK-MEL-28.
For experiment [2], the system named is CAKI-1.
The subject of experiment [3] is KM12.
In experiment [4] the test system is NCI-H23.
Experiment [5] relates to NCI-H522.
Experiment [6] relates to Malme-3M.
The subject of experiment [7] is NCI/ADR-RES.
Experiment [8] relates to NCI-H226.
For experiment [9], the system named is SF-539.
Experiment [10] has as its system HL-60.
Experiment [11] deals with U-251.
Experiment [12] relates to MDA-MB-435.
Experiment [13] has as its system SNB-19.
Experiment [14] deals with UO-31.
Experiment [15] has as its system TK-10.
The test system of experiment [16] is MDA-N.
For experiment [17], the system named is SK-OV-3.
Experiment [18] has as its system SK-MEL-2.
Experiment [19] has as its system MDA-MB-231.
The subject of experiment [20] is ACHN.

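Five concentrations, 48 hours, 96-well plates. Abbreviation: GI50, concentration required for 50% inhibition of growth.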 Active and inactive are the calls of the source. Rule as the data show it: active = GI50 up to about 1.1 µM and inactive = higher. Bounds are passed on as bounds.

`CN(C)c1ccc(C(=N/N=C2\C(=O)Nc3ccccc32)c2ccc(N(C)C)cc2)cc1`: the GI50 in [1] is 3.17 µM (inactive); in [2] it was 0.39 µM (active); in experiment [3], 0.278 µM (active); in [4], 1.73 µM (inactive); in experiment [5] it was 0.167 µM (active); in experiment [6], 2.17 µM (inactive). Further, the GI50 was 0.218 µM (active) in experiment [7]; 6.89 µM (inactive) in experiment [8]; 0.313 µM (active) in experiment [9]; 0.363 µM (active) in experiment [10]; 0.49 µM (active) in [11]; 0.0214 µM (active) in experiment [12]. Besides, the GI50 was 1.22 µM (inactive) in experiment [13]; 2.01 µM (inactive) in experiment [14]; 1.73 µM (inactive) in [15]; 0.0614 µM (active) in [16]; 1.37 µM (inactive) in experiment [17]; 0.248 µM (active) in [18]. Also, the GI50 is 0.767 µM (active) in [19] and 1.04 µM (active) in [20].
As for `COC(=O)[C@@H](NC(=O)N(Cc1ccccc1)C[C@H](CC(C)C)NC(=O)[C@@H](NC(=O)OC(C)(C)C)C(C)C)C(C)C`, the GI50 in experiment [1], in experiment [2], in experiment [3], in experiment [4], in experiment [5] and in [6] was > 100 µM (inactive) throughout. The GI50 in experiment [7], in experiment [8], in [9], in [10], in experiment [11] and in [12] was > 100 µM (inactive) throughout. For the same compound, the GI50 in experiment [13], in experiment [14], in experiment [15], in [16], in experiment [17] and in experiment [18] was > 100 µM (inactive) throughout. The GI50 in experiment [19] and in [20] was > 100 µM (inactive) in each case.
For `NCC(=O)NC(CO)C(=O)O` (configuration not stated), the GI50 in experiment [1], in experiment [2], in experiment [3], in experiment [4], in [5] and in [6] was > 100 µM (inactive) throughout. The GI50 in experiment [7], in experiment [8], in [9], in experiment [10], in experiment [11] and in experiment [12] was > 100 µM (inactive) each time. Also, the GI50 in [13], in experiment [14], in experiment [15], in experiment [16], in experiment [17] and in experiment [18] was > 100 µM (inactive) throughout. Besides, the GI50 in [19] and in [20] was > 100 µM (inactive) throughout.
Turning to `NC(C(=O)O)C(O)c1c[nH]cn1` (configuration not stated), the GI50 in experiment [1], in experiment [2], in [3], in experiment [4], in experiment [5] and in experiment [6] was > 100 µM (inactive) in each case. The GI50 in experiment [7], in [8], in experiment [9], in experiment [10], in [11] and in experiment [12] was > 100 µM (inactive) throughout. Besides, the GI50 in experiment [13], in experiment [15], in [16], in experiment [17], in experiment [18] and in experiment [19] was > 100 µM (inactive) each time. Moreover, in [20], the GI50 was > 100 µM (inactive).
On to `O=C(O)CN1CCNCCN(CC(=O)O)CCNCC1`, for which the GI50 is > 100 µM (inactive) in experiment [2]; 5.75 µM (inactive) in [3]; 44.4 µM (inactive) in experiment [4]; 14.7 µM (inactive) in experiment [5]; 56.9 µM (inactive) in experiment [6]; > 100 µM (inactive) in experiment [7]. Besides, the GI50 in experiment [8] was > 64.7 µM (inactive); in experiment [9], > 100 µM (inactive); in experiment [10] it was 3.41 µM (inactive); in [11], 9.06 µM (inactive); in experiment [12], 33 µM (inactive); in experiment [13], > 100 µM (inactive). Also, the GI50 in experiment [14] was > 100 µM (inactive); in experiment [15], > 100 µM (inactive); in experiment [16], 10.9 µM (inactive); in experiment [17], 20.1 µM (inactive); in experiment [18] it was > 100 µM (inactive); in experiment [19], > 100 µM (inactive). In addition, the GI50 in experiment [20] is > 100 µM (inactive).
Turning to `Nc1nc(Cl)cc(NCC2(CO)COC2)n1`, the GI50 in experiment [1], in experiment [2], in experiment [3], in [4], in experiment [5] and in experiment [6] was > 100 µM (inactive) throughout. Further, the GI50 in [7], in experiment [8], in experiment [9], in [10], in [11] and in experiment [12] was > 100 µM (inactive) throughout. In addition, the GI50 in experiment [14], in experiment [15], in [16], in [17], in experiment [18] and in experiment [19] was > 100 µM (inactive) in each case. Moreover, the GI50 in experiment [20] is > 100 µM (inactive).
Take `O=c1cccccc1O` [TROPOLONE]: the GI50 in experiment [1] is > 100 µM (inactive); in experiment [2] it was 83.6 µM (inactive); in experiment [3], > 100 µM (inactive); in experiment [4] it was > 100 µM (inactive); in [5], 33.3 µM (inactive); in experiment [6], > 100 µM (inactive). For the same compound, the GI50 is 39.6 µM (inactive) in [7]; > 100 µM (inactive) in experiment [8]; 11.9 µM (inactive) in [10]; > 100 µM (inactive) in experiment [12]; > 100 µM (inactive) in experiment [13]; 80.2 µM (inactive) in experiment [14]. For the same compound, the GI50 in [15] was 83.9 µM (inactive); in [16], > 100 µM (inactive); in experiment [17] it was > 100 µM (inactive); in experiment [18], > 100 µM (inactive); in experiment [19] it was > 100 µM (inactive); in [20], > 100 µM (inactive).
As to `CCN(CC)c1ccc2cc(C(N)=O)/c(=N/c3ccc(F)cc3)oc2c1`, the GI50 in experiment [1] was > 100 µM (inactive); in experiment [2], 45.9 µM (inactive); in experiment [3] it was 17.6 µM (inactive); in experiment [4] it was 13.4 µM (inactive); in [5] it was 11.6 µM (inactive); in experiment [6], 98.2 µM (inactive). For the same compound, the GI50 in experiment [7] was 35.6 µM (inactive); in experiment [8], 36.4 µM (inactive); in experiment [10] it was > 100 µM (inactive); in experiment [11], 38.5 µM (inactive); in experiment [12], > 100 µM (inactive); in experiment [13], 25.5 µM (inactive). Further, the GI50 in experiment [14] is 26.9 µM (inactive); in [15], 10.3 µM (inactive); in [16], > 100 µM (inactive); in experiment [17], 58.6 µM (inactive); in experiment [18], 35.7 µM (inactive); in [19], 14.5 µM (inactive). In experiment [20], the GI50 was 40.8 µM (inactive).
Consider `O=C(O)CSc1nnc(COc2ccc(Cl)cc2)n1-c1ccccc1`, for which the GI50 in [1], in experiment [2], in [3], in experiment [4], in experiment [5] and in experiment [6] was > 100 µM (inactive) each time. Moreover, the GI50 in experiment [7], in experiment [8], in [10], in experiment [11], in experiment [12] and in experiment [13] was > 100 µM (inactive) in each case. Also, the GI50 in experiment [14], in experiment [15], in [16], in experiment [17], in experiment [18] and in experiment [19] was > 100 µM (inactive) each time. Further, in [20], the GI50 was > 100 µM (inactive).
On to `Cc1[nH]n(C(=N)N)c(=O)c1CCO`, for which the GI50 in experiment [1] was > 100 µM (inactive); in experiment [2], > 100 µM (inactive); in experiment [4], > 100 µM (inactive); in experiment [5], > 100 µM (inactive); in experiment [6], > 100 µM (inactive); in experiment [7], 2.76 µM (inactive). Also, the GI50 in experiment [8], in experiment [9], in experiment [10], in [11], in experiment [12] and in experiment [13] was > 100 µM (inactive) throughout. The GI50 in experiment [14], in [15], in experiment [16], in experiment [17], in experiment [18] and in experiment [19] was > 100 µM (inactive) throughout. In addition, the GI50 in experiment [20] is > 100 µM (inactive).

The record behind these values is ChEMBL document CHEMBL1201862, “PubChem BioAssay data set” (2004).
